Reference: ChEMBL document CHEMBL1201862, “PubChem BioAssay data set” (2004)
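Assay format: 96-well plates, 48-hour exposure. GI50 = concentration required for 50% inhibition of growth.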 Calls of active or inactive are those of the source. Cut-off read from the data, not from the text of the source: active = GI50 up to about 1.1 µM and inactive = higher.

Key:
Assay in all cases: growth of human tumour cells (NCI), 48 h
[1] = system: HL-60
[2] = system: LOX IMVI
[3] = system: SK-OV-3
[4] = system: MCF7
[5] = system: HCT-15
[6] = system: NCI/ADR-RES
[7] = system: ACHN
[8] = system: Malme-3M
[9] = system: HCC 2998
[10] = system: RXF 393
[11] = system: 786-0
[12] = system: OVCAR-4
[13] = system: M14
[14] = system: SK-MEL-5
[15] = system: UACC-62
[16] = system: IGROV-1
[17] = system: OVCAR-5
[18] = system: MOLT-4
[19] = system: MDA-MB-231
[20] = system: SF-539

Structure (SMILES) | GI50 [1] | GI50 [2] | GI50 [3] | GI50 [4] | GI50 [5] [µM] | GI50 [6] | GI50 [7] | GI50 [8] | GI50 [9] | GI50 [10] | GI50 [11] | GI50 [12] | GI50 [13] | GI50 [14] | GI50 [15] | GI50 [16] | GI50 [17] | GI50 [18] | GI50 [19] | GI50 [20]
CN(C)C(n1cc2c(c1)-c1ccc(Cl)cc1C(c1ccccc1F)=NC2)n1cc2c(c1)-c1ccc(Cl)cc1C(c1ccccc1F)=NC2 | 51.3 µM (inactive) | 12 µM (inactive) | > 100 µM (inactive) | 64.3 µM (inactive) | > 100 | > 100 µM (inactive) | 63.2 µM (inactive) | > 100 µM (inactive) | 82 µM (inactive) | 20.2 µM (inactive) | > 100 µM (inactive) | > 100 µM (inactive) | 93.1 µM (inactive) | > 100 µM (inactive) | > 100 µM (inactive) | > 100 µM (inactive) | 20.2 µM (inactive) | > 100 µM (inactive) | > 100 µM (inactive) | > 100 µM (inactive)
COc1ccc(/C=C\c2cc(OC)c(OC)c(OC)c2)cc1OC | 0.0912 µM (active) | 0.32 µM (active) | 0.114 µM (active) | 0.0968 µM (active) | 0.113 | 0.222 µM (active) | 0.348 µM (active) | 0.0746 µM (active) | 0.134 µM (active) | 0.121 µM (active) | 0.198 µM (active) | 15.8 µM (inactive) | 0.139 µM (active) | 0.207 µM (active) | 0.197 µM (active) | 0.278 µM (active) | 12.2 µM (inactive) | 0.194 µM (active) | 0.472 µM (active) | 0.113 µM (active)
